Assay results published in article PMC8881610 (Nature Communications, 2022).
Changes are numbered by the printed parent chain.

Key:
Test in all cases: Whole-cell binding assay, competition with 125I-GIP1-42
Parameters in all cases: acylated tirzepatide to the full-length or modified; Flag; expressed in transfected cells
GIPR [1] = target: T1, GIPR (Homo sapiens, UniProt P48546, F127A); details: GIPR F127A, CHO-K1
T1 sequence (P48546 22-466 F127A): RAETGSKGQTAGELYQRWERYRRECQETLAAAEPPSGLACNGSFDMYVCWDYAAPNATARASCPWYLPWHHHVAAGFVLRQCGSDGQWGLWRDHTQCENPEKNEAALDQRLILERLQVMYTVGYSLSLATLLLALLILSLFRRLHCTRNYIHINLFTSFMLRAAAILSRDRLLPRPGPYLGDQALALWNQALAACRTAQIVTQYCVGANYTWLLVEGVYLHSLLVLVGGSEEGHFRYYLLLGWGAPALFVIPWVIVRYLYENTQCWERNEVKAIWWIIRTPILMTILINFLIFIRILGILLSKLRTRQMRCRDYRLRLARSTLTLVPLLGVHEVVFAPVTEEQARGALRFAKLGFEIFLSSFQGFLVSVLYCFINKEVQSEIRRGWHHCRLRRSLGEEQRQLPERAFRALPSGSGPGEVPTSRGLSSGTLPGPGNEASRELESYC
In short: (§1)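 Transiently transfected CHO-K1 cells expressing WT or mutant GIPR were washed in F-12 with 0.1% BSA or 0.1% casein and 33 mM HEPES, then incubated 2 h at 37 °C. After ice-cold PBS washes, cells were lysed and bound radioactivity counted (CPM).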

GIPR [2] = target: T2, GIPR (Homo sapiens, UniProt P48546, R196A); details: GIPR R196A, CHO-K1
T2 sequence (P48546 22-466 R196A): T1 sequence (P48546 22-466 F127A) with A106F, R175A
In short: as §1

GIPR [3] = target: T3, GIPR (Homo sapiens, UniProt P48546, W209A); details: GIPR W209A, CHO-K1
T3 sequence (P48546 22-466 W209A): T1 sequence (P48546 22-466 F127A) with A106F, W188A
In short: as §1

[4] = read-out: binding pIC50 (converted)

## CCCCCCCCCCCCCCCC(=O)N[C@@H](CCC(=O)NCCCC[C@H](NC(=O)[C@H](CC(=O)O)NC(=O)[C@H](CO)NC(=O)[C@@H](NC(=O)[C@H](Cc1ccccc1)NC(=O)[C@@H](NC(=O)CNC(=O)[C@H](CCC(N)=O)NC(=O)C(C)(C)NC(=O)[C@@H](N)Cc1c[nH]cn1)[C@@H](C)O)[C@@H](C)O)C(=O)N[C@@H](CO)C(=O)N[C@@H](CCCCN)C(=O)N[C@@H](Cc1ccc(O)cc1)C(=O)N[C@@H](CC(C)C)C(=O)N[C@@H](CC(=O)O)C(=O)N[C@@H](CCC(=O)O)C(=O)N[C@@H](CCCNC(=N)N)C(=O)N[C@@H](C)C(=O)N[C@@H](C)C(=O)N[C@@H](CCC(N)=O)C(=O)N[C@@H](CC(=O)O)C(=O)N[C@@H](Cc1ccccc1)C(=O)N[C@H](C(=O)N[C@@H](CCC(N)=O)C(=O)N[C@@H](Cc1c[nH]c2ccccc12)C(=O)N[C@@H](CC(C)C)C(=O)N[C@@H](CC(C)C)C(=O)N[C@@H](CC(=O)O)C(=O)NCC(=O)NCC(=O)N1CCC[C@H]1C(=O)N[C@@H](CO)C(=O)N[C@@H](CO)C(=O)NCC(=O)N[C@@H](C)C(=O)N1CCC[C@H]1C(=O)N1CCC[C@H]1C(=O)N1CCC[C@H]1C(=O)N[C@@H](CO)C(N)=O)C(C)C)C(=O)O [Peptide 20]
GIPR [1]
  binding Span: 85.53 ± 4.36 % WT
GIPR [1]; [4]
  IC50: 20 nM
GIPR [2]
  binding Span: 71.10 ± 3.42 % WT
GIPR [2]; [4]
  IC50: 14.5 nM
GIPR [3]
  binding Span: 96.83 ± 6.13 % WT
GIPR [3]; [4]
  IC50: 20 nM
